Laboratory results published in US20100204340A1 (priority 2009, published 2010).
Values belong to the compound of their own block, whether it stands above or below them.

Legend:
[1] = system: adipocyte differentiation; conditions: prior art, Biochem Biophys Res Commun 372 (2008) 108-113; cited from earlier work
SIRT1 polypeptide = biological target: T1, SIRT1 polypeptide (Homo sapiens, UniProt Q96EB6); test: SIRT 1 Direct fluorescent Screening Assay kit (Cayman); assay type: biochemical; conditions: read-out: Percentage SIRT 1 modulation; for activation at 1 µg/mL: 1 μg/ml; for activation at 10 µg/mL: 10 μg/ml; for activation at 50 µg/mL: 50 μg/ml; for activation at 100 µg/mL: 100 μg/ml; for activation at 250 µg/mL: 250 μg/ml
T1 construct: purchased Cayman Chemical Company 10010401
T1 sequence (Q96EB6 1-747): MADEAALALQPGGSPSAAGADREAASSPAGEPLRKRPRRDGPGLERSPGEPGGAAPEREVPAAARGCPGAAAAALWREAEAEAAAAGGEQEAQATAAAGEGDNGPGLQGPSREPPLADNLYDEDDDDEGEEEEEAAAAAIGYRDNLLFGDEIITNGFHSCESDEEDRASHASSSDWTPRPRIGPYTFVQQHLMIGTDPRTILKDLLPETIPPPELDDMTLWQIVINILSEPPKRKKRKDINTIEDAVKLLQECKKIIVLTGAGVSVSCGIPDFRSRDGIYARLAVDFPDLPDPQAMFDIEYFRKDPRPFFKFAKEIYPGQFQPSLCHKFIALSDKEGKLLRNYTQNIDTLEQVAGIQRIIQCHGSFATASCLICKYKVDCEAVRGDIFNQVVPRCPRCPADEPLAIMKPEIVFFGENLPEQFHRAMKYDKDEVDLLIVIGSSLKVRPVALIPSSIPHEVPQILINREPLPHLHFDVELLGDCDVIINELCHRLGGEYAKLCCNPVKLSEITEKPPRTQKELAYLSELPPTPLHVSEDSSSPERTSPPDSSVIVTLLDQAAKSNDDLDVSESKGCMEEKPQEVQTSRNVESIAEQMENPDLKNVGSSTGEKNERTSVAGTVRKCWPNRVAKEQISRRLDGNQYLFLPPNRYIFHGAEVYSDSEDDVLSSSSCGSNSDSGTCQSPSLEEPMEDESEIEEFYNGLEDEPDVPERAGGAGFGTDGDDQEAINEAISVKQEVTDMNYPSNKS
Procedure: SIRT-1 activation/inhibition was measured using the SIRT 1 Direct fluorescent Screening Assay kit (Catalog No. 10010401) and instructions provided therein of Cayman Chemical Company, 1180 East Ellsworth Road, Ann Arbor, Mich. 48108 USA. (http://www.caymanchem.com/pdfs/10010401.pdf)

3T3-L1 cells = conditions: cited from earlier work
[2] = Pharmacokinetics in serum and urine upon oral administration; assay type: in vivo, rats; conditions: rats, oral, 100 mg/kg body weight
Procedure: The compound in its free and conjugated form is freely absorbed into systemic circulation with the glucoronide detected up to 72 hours.
(FIG. 4). The compound in its free and conjugated form appears in systemic circulation within 15 minutes of administration.

Compound: COc1ccc(/C=C/c2cc(O)cc(O[C@@H]3O[C@H](CO)[C@@H](O)[C@H](O)[C@H]3O)c2)cc1O [rhaponticin]
Effect on adipocyte differentiation / adipogenesis [1]: no effect on adipogenesis

Compound: OC[C@H]1O[C@@H](Oc2cc(O)cc(/C=C/c3ccc(O)cc3)c2)[C@H](O)[C@@H](O)[C@@H]1O [resveratrol-3-O-B-D-glucoside]
Effect on adipocyte differentiation / adipogenesis [1]: no effect on adipogenesis

activation at 1 µg/mL (SIRT1 polypeptide): 2.22%
activation at 10 µg/mL (SIRT1 polypeptide): 11.1%
activation at 50 µg/mL (SIRT1 polypeptide): 53.3%
activation at 100 µg/mL (SIRT1 polypeptide): 113%
activation at 250 µg/mL (SIRT1 polypeptide): 231%
Compound: COc1cc(C=Cc2ccc(O)cc2)cc(OC)c1 [Pterostilbene, 3,5-dimethoxy-4′-hydroxystilbene]
IC50 (3T3-L1 cells; approximate conversion of 23.9 μg/ml, read-out: Reported IC50 (adipogenesis), converted): ~96 µM
Reported IC50 (adipogenesis) (3T3-L1 cells; reported, Remsberg et al., 3T3-L1): 23.9 µg/mL

Compound: CC(=O)Oc1ccc(C=Cc2cc(OC(C)=O)cc(OC(C)=O)c2)cc1 [resveratrol triacetate]
Effect on adipocyte differentiation / adipogenesis [1]: no effect on adipogenesis

Compound: Oc1cc(O)cc(/C=C/c2c(O)cccc2O)c1 [Gnetol, 2,3′,5′,6-tetrahydroxy-trans-stilbene]
Oral bioavailability (free form and glucoronide) ([2]; serum): orally bioavailable
Urinary excretion form ([2]; urine): excreted predominantly as glucoronides in the urine

Compound: COc1c(O)cc(C=Cc2ccccc2)cc1O [3,5-dihydroxy-4-methoxystilbene]
Effect on adipocyte differentiation / adipogenesis [1]: no effect on adipogenesis

Compound: COc1ccc(C=Cc2cc(O)cc(O)c2)cc1 [3,5-dihydroxy-40-methoxystilbene]
Effect on adipocyte differentiation / adipogenesis [1]: no effect on adipogenesis

Compound: Oc1ccc(/C=C/c2cc(O)cc3c2[C@@H](c2cc(O)cc(O)c2)[C@H](c2ccc(O)cc2)O3)cc1 [e-viniferin]
Effect on adipocyte differentiation / adipogenesis [1]: no effect on adipogenesis

Compound: CC(=O)OCC1OC(Oc2cc(C=Cc3ccc(OC(C)=O)cc3)cc(OC(C)=O)c2)C(OC(C)=O)C(OC(C)=O)C1OC(C)=O (stereo not shown) [resveratrol-3-O-Glu hexaacetate]
Effect on adipocyte differentiation / adipogenesis [1]: no effect on adipogenesis

Compound: CC(=O)O.Cc1c(O)cc(C=Cc2ccccc2)cc1O [3,5-dihydroxy-4-methylstilbene acetate]
Effect on adipocyte differentiation / adipogenesis [1]: no effect on adipogenesis

Compound: Oc1cc(O)cc(/C=C/c2ccc(O)cc2O)c1 [Oxyresveratrol, trans-2,3′,4,5′-tetrahydroxystilbene]
activation at 1 µg/mL (SIRT1 polypeptide): 77.8%
activation at 10 µg/mL (SIRT1 polypeptide): 24.4%
activation at 50 µg/mL (SIRT1 polypeptide): 60%
activation at 100 µg/mL (SIRT1 polypeptide): 202%
activation at 250 µg/mL (SIRT1 polypeptide): 298%

Compound: Oc1ccc([C@H]2c3c(O)cc(O)cc3[C@H]3c4c(cc(O)cc4[C@@H]2c2cc(/C=C/c4cc(O)cc5c4[C@H](c4cc(O)cc(O)c4)[C@@H](c4ccc(O)cc4)O5)ccc2O)O[C@@H]3c2ccc(O)cc2)cc1 [Vitisin A]
Effect on adipocyte differentiation / adipogenesis [1]: inhibited adipocyte differentiation most effectively

Compound: COc1ccc(C=Cc2cc(OC(C)=O)cc(OC3OC(COC(C)=O)C(OC(C)=O)C(OC(C)=O)C3OC(C)=O)c2)cc1OC(C)=O (stereo not shown) [rhaponticin hexaacetate]
Effect on adipocyte differentiation / adipogenesis [1]: no effect on adipogenesis

activation at 1 µg/mL (SIRT1 polypeptide): 64.4%
Compound: CC(NC(=O)c1ccccc1/N=C/c1c(O)ccc2ccccc12)c1ccccc1 (stereo not shown) [Sirtinol, 2-[(2-Hydroxynaphthalen-1-ylmethylene)amino]-N-(1-phenyl-ethyl)•benzamide]
